Test results from paper PMC7931226 (Pharmacology Research & Perspectives, 2021).
Each block holds one compound with its values, some of them ahead of it.

How the values were obtained:
Tolerability in rats = format: in vivo
[1] = Elacridar plasma and brain exposure, constant infusion in rats; format: in vivo, Sprague Dawley rats; settings: rat; for concentration at 4 h: Sprague Dawley, intravenous
MDCK-BCRP cells = settings: range of substrates, well documented (ref not given); cited from earlier work
[2] = Rat plasma protein binding; format: in vitro ADME
Caco-2 cells = settings: range of substrates, well documented (ref not given); cited from earlier work
[3] = tested on: P-gp and Bcrp (rat, blood-brain barrier); assay: In vivo efflux ratio; parameters: species or system Sprague Dawley rats; settings: Sprague Dawley, intravenous, with elacridar 8.9 mg/hr/kg, 4.5-hour constant infusion
BCRP = BCRP knockout; cited from earlier work
[4] = target: T1, Bcrp in the gut and biliary compartments (Rattus norvegicus, UniProt Q80W57); assay: Oral PK of BCRP substrates with constant infusion of elacridar; format: in vivo; settings: oral substrate with constant infusion of elacridar
T1 sequence (Q80W57 1-657): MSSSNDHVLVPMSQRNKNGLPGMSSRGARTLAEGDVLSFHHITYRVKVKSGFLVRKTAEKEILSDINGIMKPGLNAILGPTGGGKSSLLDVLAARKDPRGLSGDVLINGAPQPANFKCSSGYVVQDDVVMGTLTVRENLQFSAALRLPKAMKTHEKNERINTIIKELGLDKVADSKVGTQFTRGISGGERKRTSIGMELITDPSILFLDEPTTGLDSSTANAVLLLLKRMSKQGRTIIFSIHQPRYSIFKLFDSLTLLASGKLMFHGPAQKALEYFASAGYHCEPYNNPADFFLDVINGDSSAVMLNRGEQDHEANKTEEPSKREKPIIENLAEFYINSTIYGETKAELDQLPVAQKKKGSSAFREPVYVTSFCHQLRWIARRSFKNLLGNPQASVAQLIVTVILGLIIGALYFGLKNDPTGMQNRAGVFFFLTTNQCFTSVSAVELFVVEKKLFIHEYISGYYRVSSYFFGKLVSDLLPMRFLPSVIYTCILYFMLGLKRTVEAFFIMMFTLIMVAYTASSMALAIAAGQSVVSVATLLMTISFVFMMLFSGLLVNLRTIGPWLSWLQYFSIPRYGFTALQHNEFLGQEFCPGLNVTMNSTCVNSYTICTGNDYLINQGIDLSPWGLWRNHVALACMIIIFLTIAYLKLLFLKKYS

[5] = Valspodar plasma and brain exposure, constant infusion or IV bolus in rats; format: in vivo, Sprague Dawley rats; settings: rat; for concentration at 4 h: Sprague Dawley, plasma, intravenous
rat P-gp at the BBB = assay: In vivo efflux ratio; parameters: species or system Sprague Dawley rats; settings: constant infusion, inhibition of P-gp at the BBB
P-gp = settings: ref 26 (Smith et al, 1998); cited from earlier work
[6] = constant infusion, based upon 3x the half-life

Structure (SMILES): COc1cc2c(cc1OC)CN(CCc1ccc(NC(=O)c3cccc4c(=O)c5cccc(OC)c5[nH]c34)cc1)CC2 [elacridar, 9,10‐dihydro‐5‐methoxy‐9‐oxo‐N‐[4‐[2‐(1,2,3,4‐tetrahydro‐6,7‐dimethoxy‐2‐isoquinolinyl)ethyl]phenyl]‐4‐acridine‐carboxamide]
side effects (Tolerability in rats; any study conditions up to 8-hour duration): no negative side effects were observed
concentration at 4 h ([1]; brain, 8.9 mg/hr/kg, total drug in brain, elacridar 8.9 mg/hr/kg constant infusion): > 45000 ng/g
concentration at 4 h ([1]; plasma, 8.9 mg/hr/kg, Elacridar (total plasma), elacridar 8.9 mg/hr/kg, 4.5-hour constant infusion, mean): > 2000 ng/mL
concentration at 4 h ([1]; plasma, 8.9 mg/hr/kg, steady state free plasma, elacridar 8.9 mg/hr/kg constant infusion (maximum)): 35 to 70 nM
concentration at 4 h ([1]; plasma, free plasma exposure, range over doses, 0.009 to 8.9 mg/hr/kg constant infusion, 1.5% rat plasma free fraction): 0.025 to 49 ng/mL
concentration at 4 h ([1]; plasma, total plasma exposure (mean), range over doses, 0.009 to 8.9 mg/hr/kg constant infusion over 4.5 hours): 1.6 to 3270 ng/mL
time to steady state in plasma [1, 6]: ≤ 2.5 h
IC50 (MDCK-BCRP cells): 300 nM
free in rat plasma (free fraction) ([2]; well known (ref 27), confirmed in-house): 1.5%
IC50 (Caco-2 cells): 600 nM

Structure (SMILES): CC[C@@]1(O)C(=O)OCc2c1cc1n(c2=O)Cc2cc3c(CN(C)C)c(O)ccc3nc2-1 [topotecan]
clearance (calculated t1/2 and liver concentrations) [4]: not impacted

Structure (SMILES): C/C=C/C[C@@H](C)C(=O)[C@H]1C(=O)N[C@@H](C(C)C)C(=O)N(C)CC(=O)N(C)[C@@H](CC(C)C)C(=O)N[C@@H](C(C)C)C(=O)N(C)[C@@H](CC(C)C)C(=O)N[C@@H](C)C(=O)N[C@H](C)C(=O)N(C)[C@@H](CC(C)C)C(=O)N(C)[C@@H](CC(C)C)C(=O)N(C)[C@@H](C(C)C)C(=O)N1C [valspodar]
side effects (Tolerability in rats; IV bolus doses at 10 mg/kg or higher and repeat doses of 5 mg/kg or higher with less than 2 h between doses): lethargy and increased urination
side effects (Tolerability in rats; constant infusion 0.9 mg/hr/kg and 2.7 mg/hr/kg up to 8 hours): No side effects were observed
side effects (Tolerability in rats; constant infusion, highest dose 8 mg/hr/kg): some instances were observed
concentration at 4 h ([5]; 8 mg/hr/kg, free plasma exposure, maximum soluble dose 8 mg/hr/kg constant infusion): 2140 nM
concentration at 4 h ([5]; free plasma exposure (mean), range over doses, 0.09 to 8 mg/hr/kg constant infusion over 4.5 hours, rat plasma binding = 92%): 32 to 2590 ng/mL
time to steady state in plasma [5, 6]: ≤ 2.5 h
rat plasma binding ([2]; mean): 92%
minimal (lowest) efficacious dose (rat P-gp at the BBB): 0.9 mg/h/kg
decrease in in vitro efficacy from serum binding (P-gp): 23 fold

The next lines start with results.

efflux ratio at 4 h [3]: 5.4
Structure (SMILES): COc1ccc(Cl)cc1C(=O)NCCc1ccc(S(=O)(=O)NC(=O)NC2CCCCC2)cc1 [glyburide]
increase in placental tissue concentration (BCRP): 2.5 fold

increase in liver concentrations ([4]; 8 hours post-dose): 4 fold
half-life ([4]; up to 8 hours post-dose): significant increase
Structure (SMILES): O=C(O)c1cc(/N=N/c2ccc(S(=O)(=O)Nc3ccccn3)cc2)ccc1O [sulfasalazine]
